One test has as its target NAMPT (Homo sapiens (Human), UniProt P43490). As to the kind of experiment: Biochemical Inhibition Assay (NAMPT enzymatic reaction, NMN quantified by mass spectrometry). Conditions: 33 nM recombinant His-tagged NAMPT, 1 μM NAM, 30 min at rt. The procedure, abridged: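 His-tagged human NAMPT from E. coli preincubated 15 min at rt with compound in 50 mM Hepes pH 7.5, 50 mM NaCl, 5 mM MgCl2, 1 mM THP, then reacted 30 min at rt with 1 μM NAM, […] PRPP, 2.5 mM ATP. NMN quantified by RapidFire mass spectrometry, normalized to L-Cystathionine, background subtracted.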

In the next test the test system is A2780 cells. As to the kind of experiment: In-Vitro Cell Proliferation Assay (SRB). As to conditions: Homo sapiens, A2780, 72 h.
Where [1] appears, read: read-out: Cell Proliferation (IC50).
The mark [2] stands for this setting: read-out: Cell Proliferation (IC50), A2780 cells, 72 h, sulforhodamine B.

Like-named read-outs stand apart in the source and are kept apart here.

Chain of NAMPT (P43490 whole entry): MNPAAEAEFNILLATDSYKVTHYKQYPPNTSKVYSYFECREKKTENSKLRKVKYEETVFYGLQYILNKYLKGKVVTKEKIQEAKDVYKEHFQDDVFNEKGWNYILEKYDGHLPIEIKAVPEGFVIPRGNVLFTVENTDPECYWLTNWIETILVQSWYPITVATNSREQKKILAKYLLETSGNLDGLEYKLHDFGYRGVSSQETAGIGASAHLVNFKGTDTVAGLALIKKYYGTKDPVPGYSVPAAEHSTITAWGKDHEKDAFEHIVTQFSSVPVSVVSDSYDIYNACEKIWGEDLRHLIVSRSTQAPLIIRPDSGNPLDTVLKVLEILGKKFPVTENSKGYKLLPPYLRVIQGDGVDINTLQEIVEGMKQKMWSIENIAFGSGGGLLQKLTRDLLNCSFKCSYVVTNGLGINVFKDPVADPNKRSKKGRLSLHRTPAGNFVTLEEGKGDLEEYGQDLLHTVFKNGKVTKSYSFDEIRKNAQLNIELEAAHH
Method for A2780 cells: Assay 2: In-Vitro Cell Proliferation Assay
Assay Method. […] The compounds were then further diluted to 10 OX final concentration in culture media, whereupon 20 μL of each dilution was added to the plated cells with controls (e.g. DMSO and blank) to make a final volume of 200 μL. The final DMSO concentration in each well was 0.1%. The plates were then incubated for 72 h at 37° C. in a 5% CO2 incubator. The number of viable cells was then assessed using sulforhodamine B (SRB) assay. Cells were fixed at 4° C. for 1 h with the addition of 50 μL 30% trichloroacetic acid (TCA) to make a final concentration of 6% TCA. The plates were washed four times with H2O and allowed to dry for at least 1 h, whereupon 100 μL of a 4% SRB in 1% acetic acid solution was added to each well and incubated at rt for at least 30 min. The plates were then washed three times with 1% acetic acid, dried, and treated with 100 μL of 10 mM Tris-Base solution. The plates were then read in a microplate reader at an absorbance of 570 nm. Background was generated on a separate plate with media only.
Determination of IC50 Values. First, the signals from the background plate were averaged, then the background was subtracted from the test plates.
The specificity of the compounds were determined via cell viability assay in the presence of the compound and either NAM or NMN Percent inhibitions were determined using the method given above.

Regarding `O=C(NCc1ccc(S(=O)(=O)c2cccc(OC(F)(F)F)c2)cn1)c1cnc2nccn2c1` [Example 20, Imidazo[1,2-a]pyrimidine-6-carboxylic acid [5-(3-trifluoromethoxy-benzenesulfonyl)-pyridin-2-ylmethyl]-amide], the IC50 on NAMPT worked out at 3.4 nM; with A2780 cells (setting [1]), 11.4 nM.
In the same order, the values of `O=C(NCc1ccc(S(=O)(=O)N2CCCCC2)cn1)N1Cc2cn[nH]c2C1` [Example 180, N-[[5-(1-piperidylsulfonyl)-2-pyridyl]methyl]-4,6-dihydro-1H-pyrrolo[3,4-c]pyrazole-5-carboxamide] are 562 nM and 2000 nM.
In the same order, the values of `O=C(NCc1ccc([S+]([O-])c2cccc(C(F)(F)F)c2)cn1)c1cc2ccncc2o1` (racemic) [Example 87, Furo[2,3-c]pyridine-2-carboxylic acid [5-(3-trifluoromethyl-benzenesulfinyl)-pyridin-2-ylmethyl]-amide (racemic)] are 17.7 nM and 15.2 nM.
In the same order, the values of `O=C(NCc1ccc(S(=O)(=O)C2CCN(C3CCOC3)CC2)cn1)N1Cc2ccncc2C1` (stereo not drawn) [Example 129, N-[[5-[(1-tetrahydrofuran-3-yl-4-piperidyl)sulfonyl]-2-pyridyl]methyl]-1,3-dihydropyrrolo[3,4-c]pyridine-2-carboxamide] are 32.7 nM and 36.3 nM.
As for `CC(C)n1cc(S(=O)(=O)c2ccc(CNC(=O)c3ccc4nccn4c3)nc2)cn1` [Example 44], the figures for the IC50 on NAMPT and with A2780 cells (setting [2]) were 29.9 nM and 20 nM, respectively.
On to `O=C(NCc1ccc(S(=O)(=O)c2ccccc2)cn1)c1ccc2nccn2c1` [Example 184, N-[[5-(benzenesulfonyl)-2-pyridyl]methyl]imidazo[1,2-a]pyridine-6-carboxamide], for which the IC50 at NAMPT is 99.2 nM; in the test on A2780 cells (setting [2]), 2000 nM.
Take `COc1ccc(S(=O)(=O)c2ccc(CNC(=O)c3ccc4nccn4c3)nc2)cc1OC` [Example 65, Imidazo[1,2-a]pyridine-6-carboxylic acid [5-(3,4-dimethoxy-benzenesulfonyl)-pyridin-2-ylmethyl]-amide]: the IC50 was 30.7 nM at NAMPT and 7 nM in the test on A2780 cells (setting [1]).
In the same order, the values of `O=C(NCc1ccc(S(=O)(=O)c2ccc(N3CCOCC3)nc2)cn1)c1cnc2[nH]ncc2c1` [Example 41, 1H-Pyrazolo[3,4-b]pyridine-5-carboxylic acid (5-(6-morpholin-4-yl-pyridine-3-sulfonyl)-pyridin-2-ylmethyl]-amide] are 19 nM and 7.2 nM.
As for `Cc1ccc(S(=O)(=O)c2ccc(CNC(=O)c3ccc4nccn4c3)nc2)cn1` [Example 92, Imidazo[1,2-a]pyridine-6-carboxylic acid [5-(6-methyl-pyridine-3-sulfonyl)-pyridin-2-ylmethyl]-amide], the IC50 came out at 33.9 nM at NAMPT and 56.8 nM in the test with A2780 cells (setting [2]).
`COc1cccc(S(=O)(=O)c2ccc(CNC(=O)c3cnc4nccn4c3)nc2)c1` [Example 33, Imidazo[1,2-a]pyrimidine-6-carboxylic acid [5-(3-methoxy-benzenesulfonyl)-pyridin-2-ylmethyl]-amide]: the IC50 was 4.6 nM on NAMPT and 28.6 nM with A2780 cells (setting [1]).
On to `CS(=O)(=O)c1cccc(S(=O)(=O)c2ccc(CNC(=O)c3cc4ccncc4o3)nc2)c1` [Example 124, N-[[5-(3-methylsulfonylphenyl)sulfonyl-2-pyridyl]methyl]furo[2,3-c]pyridine-2-carboxamide], for which the IC50 was 13 nM on NAMPT and 18.9 nM with A2780 cells (setting [1]).
In the same order, the values of `CN(C)c1ccc(S(=O)(=O)c2ccc(CNC(=O)c3cnc4nccn4c3)nc2)cn1` [Example 69, Imidazo[1,2-a]pyrimidine-6-carboxylic acid (5-(6-dimethylamino-pyridine-3-sulfonyl)-pyridin-2-ylmethyl]-amide] are 5.4 nM and 25.9 nM.

These data come from US9458172B2, “Pyridinyl and pyrimidinyl sulfoxide and sulfone derivatives” (priority 2012, dated 2016).
